Measured values as given in patent US20040029774A1, “Composition and methods for the treatment of musculoskeletal disorders and collagen and elastin deficiencies” (priority 2002, published 2004).
Blank lines part the entries; values can stand above or below the compound they belong to.

Experiments:
[1] = Solubility of rejuvenating ingredients in acidified deionized water mimicking the stomach
Procedure: In order to determine the amount of rejuvenating-nutrient that may be completely dissolved in water under conditions similar to that of stomach, the following study was executed: Deionized water was heated to 98° F.-99° F. to mimic the temperature of the human body. Adjustment of pH of the water to 2.7-2.9 was accomplished using hydrochloric acid to effect acidic conditions of the human stomach. […] Water/joints products were placed in a heated water bath with continuous agitation. Solubility of various joints products was compared at 30 minutes, one hour and two hours.
The following data reflect the percentage of product solubilized compared to added concentration at 0 minutes: […]

[2] = cited from earlier work

- % SOLUBILITY 2 HRS. ([1]; 2 h, pH 2.7): 30%
Compound: N[C@H]1C(O)O[C@H](CO)[C@@H](O)[C@@H]1O (some centres unmarked) [GLUCOSAMINE, Glucosamine]

- % SOLUBILITY 1 HR. ([1]; 1 h, pH 2.7): 20%
- % SOLUBILITY 2 HRS. ([1]; 2 h, pH 2.7): 30%
Compound: CS(C)(=O)=O [MSM, Methyl-Sulfonyl-Methane]

Compound: N[C@H]1C(O)O[C@H](CO)[C@@H](O)[C@@H]1O.O=S(=O)(O)O (some centres unmarked) [glucosamine sulfate]
- Clinical improvement of symptoms, persistence ([2]; after discontinuation of oral administration): up to four weeks
- Clinical improvement of symptoms, onset ([2]; after oral administration): as early as one week

Compound: Chondroitin sulfate
- % SOLUBILITY 30 MINS. ([1]; 10% concentration, water 98-99° F., pH 2.7-2.9): 100%
- % SOLUBILITY 30 MINS. ([1]; 30% concentration, water 98-99° F., pH 2.7-2.9): 100%
- % SOLUBILITY 30 MINS. ([1]; 50% concentration, water 98-99° F., pH 2.7-2.9): 100%
- soluble at 50% concentration ([1]; 50% concentration, water 98-99° F., pH 2.7-2.9, time not given): 100%
- % SOLUBILITY 30 MINS. ([1]; 70% concentration, water 98-99° F., pH 2.7-2.9): 20%
- % SOLUBILITY 1 HR. ([1]; 70% concentration, water 98-99° F., pH 2.7-2.9, one hour): 20%
- % SOLUBILITY 2 HRS. ([1]; 70% concentration, water 98-99° F., pH 2.7-2.9, two hours): 20%

- % SOLUBILITY 1 HR. ([1]; pH 2.7): 10%
- % SOLUBILITY 2 HRS. ([1]; pH 2.7): 15%
Compound: Gelatin
